Each compound was assayed against T1, human PTH1 receptor (Homo sapiens, UniProt Q03431) (assay: In vitro cAMP signal activity in HKRK-B7 cells (LLC-PK1 cells overexpressing the human PTH1 receptor)). Settings: HKRK-B7 cells; compound at 1×10^−3 M; cAMP produced as percentage of that produced by hPTH(1-34) at 100 nM.
T1 sequence (Q03431 27-593): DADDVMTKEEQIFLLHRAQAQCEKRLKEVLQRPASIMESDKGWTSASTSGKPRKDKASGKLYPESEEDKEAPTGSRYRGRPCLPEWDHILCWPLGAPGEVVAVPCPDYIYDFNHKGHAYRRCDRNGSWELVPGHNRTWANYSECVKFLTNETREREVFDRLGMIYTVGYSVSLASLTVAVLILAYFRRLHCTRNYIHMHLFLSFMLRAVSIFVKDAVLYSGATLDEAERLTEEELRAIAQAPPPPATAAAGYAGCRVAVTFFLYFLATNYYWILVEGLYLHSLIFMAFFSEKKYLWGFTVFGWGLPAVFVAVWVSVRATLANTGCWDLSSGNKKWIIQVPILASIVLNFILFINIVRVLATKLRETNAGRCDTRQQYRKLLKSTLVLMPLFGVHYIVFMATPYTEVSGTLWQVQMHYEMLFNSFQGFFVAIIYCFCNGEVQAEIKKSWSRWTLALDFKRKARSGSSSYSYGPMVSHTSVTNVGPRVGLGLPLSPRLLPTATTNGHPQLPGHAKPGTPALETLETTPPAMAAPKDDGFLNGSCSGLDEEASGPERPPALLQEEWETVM
Format: cell-based

Compound | cAMP production activity (%)
CCCSCCCCCC1=NC2(CCN([S@TB17](=O)(=O)/C=C/c3c(C)cc(N(C)C(N)=O)cc3C)CC2)C(=O)N1 [Compound 1122, 1-(3,5-dimethyl-4-{(E)-2-[4-oxo-2-(5-propylsulfanyl-pentyl)-1,3,8-triaza-spiro[4.5]dec-1-ene-8-sulfonyl]-vinyl}-phenyl)-1-methyl-urea] | 150%
CC(=O)N(CCN(C)C)c1cc(C)c(/C=C/S(=O)(=O)N2CCC3(CC2)N=C(c2cccc(OC(F)(F)F)c2)NC3=O)c(C)c1 [Compound 607, N-(2-dimethylamino-ethyl)-N-(3,5-dimethyl-4-{(E)-2-[4-oxo-2-(3-trifluoromethoxy-phenyl)-1,3,8-triaza-spiro[4.5]dec-1-ene-8-sulfonyl]-vinyl}-phenyl)-acetamide] | 6.5%
O=C(C1CCc2ccccc2C1)N1CCCC(C2=NC3(CCN(S(=O)(=O)CCc4cccc5ccccc45)CC3)C(=O)N2)C1 (centres unmarked) [Compound 430, 8-(2-naphthalen-1-yl-ethanesulfonyl)-2-[1-(1,2,3,4-tetrahydro-naphthalene-2-carbonyl)-piperidin-3-yl]-1,3,8-triaza-spiro[4.5]dec-1-en-4-one] | 23%
CC1(C)OCC(Cn2ccc3c(/C=C/S(=O)(=O)N4CCC5(CC4)N=C(C4CCOCC4)NC5=O)cccc32)O1 (centres unmarked) [Compound 246, 8-{(E)-2-[1-(2,2-dimethyl-[1,3]dioxolan-4-ylmethyl)-1H-indol-4-yl]-ethenesulfonyl}-2-(tetrahydro-pyran-4-yl)-1,3,8-triaza-spiro[4.5]dec-1-en-4-one] | 39%
Cc1cc(OCCC(O)CO)ccc1-c1ccc(S(=O)(=O)N2CCC3(CC2)N=C(c2ccc(F)c(C(F)(F)F)c2)NC3=O)s1 (centres unmarked) [Compound 341, 8-{5-[4-(3,4-Dihydroxy-butoxy)-2-methyl-phenyl]-thiophene-2-sulfonyl}-2-(4-fluoro-3-trifluoromethyl-phenyl)-1,3,8-triaza-spiro[4.5]dec-1-en-4-one] | 62%
Cc1cc(N(C)C(N)=O)cc(C)c1/C=C\S(=O)(=O)N1CCC2(CC1)N=C(CCCCCc1ccccc1)NC2=O.O=C(O)C(F)(F)F [Compound 1134, 1-(3,5-dimethyl-4-{(Z)-2-[4-oxo-2-(5-phenyl-pentyl)-1,3,8-triaza-spiro[4.5]dec-1-ene-8-sulfonyl]-vinyl}-phenyl)-1-methyl-urea trifluoroacetate] | 50%
COCCCCCCCC1=NC2(CCN([S@TB18](=O)(=O)/C=C/c3c(C)cc(N(C)C(N)=O)cc3C)CC2)C(=O)N1 [Compound 1123, 1-(4-{(E)-2-[2-(7-methoxy-heptyl)-4-oxo-1,3,8-triaza-spiro[4.5]dec-1-ene-8-sulfonyl]-vinyl}-3,5-dimethyl-phenyl)-1-methyl-urea] | 122%
Cc1cc(C(=O)N2CCC3(CC2)COC3)cc(C)c1/C=C/S(=O)(=O)N1CCC2(CC1)N=C(c1ccc(F)c(C(F)(F)F)c1)NC2=O [Compound 644, 8-{(E)-2-[2,6-dimethyl-4-(2-oxa-7-aza-spiro[3.5]nonane-7-carbonyl)-phenyl]-ethenesulfonyl}-2-(4-fluoro-3-trifluoromethyl-phenyl)-1,3,8-triaza-spiro[4.5]dec-1-en-4-one] | 75%
[2H]C([2H])([2H])C([2H])([2H])Oc1cc(C2=NC3(CCN(S(=O)(=O)/C=C/c4c(C)cc(C(=O)N5CCC(C)(O)CC5)cc4C)CC3)C(=O)N2)ccc1F [Compound 1224, 2-(3-[1,1,2,2,2-^2H5]ethoxy-4-fluoro-phenyl)-8-{(E)-2-[4-(4-hydroxy-4-methyl-piperidine-1-carbonyl)-2,6-dimethyl-phenyl]-ethenesulfonyl}-1,3,8-triaza-spiro[4.5]dec-1-en-4-one] | 88%
Cc1cc(OCCC(O)CO)ccc1/C=C/S(=O)(=O)N1CCC2(CC1)N=C(c1cccc(C(F)(F)F)c1)NC2=O (centres unmarked) [Compound 210, 8-{(E)-2-[4-(3,4-Dihydroxy-butoxy)-2-methyl-phenyl]-ethenesulfonyl}-2-(3-trifluoromethyl-phenyl)-1,3,8-triaza-spiro[4.5]dec-1-en-4-one] | 79%
O=C1NC(c2cccc(Cl)c2)=NC12CCN(S(=O)(=O)c1cccc(Cl)c1)CC2 [Compound 6, 8-(3-chloro-benzenesulfonyl)-2-(3-chloro-phenyl)-1,3,8-triaza-spiro[4.5]dec-1-en-4-one] | 4.2%
Cc1cc(N2C(=O)CNC2=O)cc(C)c1CCS(=O)(=O)N1CCC2(CC1)N=C(c1ccc(F)c(C(F)(F)F)c1)NC2=O [Compound 800, 3-(4-{2-[2-(4-fluoro-3-trifluoromethyl-phenyl)-4-oxo-1,3,8-triaza-spiro[4.5]dec-1-ene-8-sulfonyl]-ethyl}-3,5-dimethyl-phenyl)-imidazolidine-2,4-dione] | 77%
CCCCC#CCCCC1=NC2(CCN(S(=O)(=O)CCc3c(C)cc(N(C)C(N)=O)cc3C)CC2)C(=O)N1 [Compound 1081, 1-{3,5-Dimethyl-4-[2-(2-non-4-ynyl-4-oxo-1,3,8-triaza-spiro[4.5]dec-1-ene-8-sulfonyl)-ethyl]-phenyl}-1-methyl-urea] | 53%
Cc1cc(N2C(=O)CNC2=O)ccc1CCS(=O)(=O)N1CCC2(CC1)N=C(C1CCC(CCC(F)F)CC1)NC2=O (centres unmarked) [Compound 956, 3-[4-(2-{2-[4-(3,3-difluoro-propyl)-cyclohexyl]-4-oxo-1,3,8-triaza-spiro[4.5]dec-1-ene-8-sulfonyl}-ethyl)-3-methyl-phenyl]-imidazolidine-2,4-dione] | 87%
CCCCCCCCC1=NC2(CCN([S@TB17](=O)(=O)CCc3c(C)cc(N(C)C(N)=O)cc3C)CC2)C(=O)N1 [Compound 1142, 1-{3,5-dimethyl-4-[2-(2-octyl-4-oxo-1,3,8-triaza-spiro[4.5]dec-1-ene-8-sulfonyl)-ethyl]-phenyl}-1-methyl-urea] | 68%
Cc1cc(C(=O)N2CCS(=O)(=O)CC2)cc(C)c1CCS(=O)(=O)N1CCC2(CC1)N=C(C1CCC(C)CC1)NC2=O (centres unmarked) [Compound 1183, 8-{2-[4-(1,1-dioxo-1λ^6-thiomorpholine-4-carbonyl)-2,6-dimethyl-phenyl]-ethanesulfonyl}-2-(4-methyl-cyclohexyl)-1,3,8-triaza-spiro[4.5]dec-1-en-4-one] | 90%
Cc1cc(N(C)C(N)=O)cc(C)c1CCS(=O)(=O)N1CCC2(CC1)N=C(C1CC(C)(C)CC(C)(C)C1)NC2=O [Compound 1298, 1-(3,5-Dimethyl-4-{2-[4-oxo-2-(3,3,5,5-tetramethyl-cyclohexyl)-1,3,8-triaza-spiro[4.5]dec-1-ene-8-sulfonyl]-ethyl}-phenyl)-1-methyl-urea] | 117%
Cc1ccc(NCCO)cc1/C=C/S(=O)(=O)N1CCC2(CC1)N=C(C1CCCCC1)NC2=O [Compound 199, 2-cyclohexyl-8-{(E)-2-[5-(2-hydroxy-ethylamino)-2-methyl-phenyl]-ethenesulfonyl}-1,3,8-triaza-spiro[4.5]dec-1-en-4-one] | 46%
CC[C@H]1CC[C@H](C2=NC3(CCN(S(=O)(=O)CCc4ccc(N5CC(=O)NC5=O)cc4C)CC3)C(=O)N2)CC1 [Compound 878, 1-(4-{2-[2-(4-ethyl-cyclohexyl)-4-oxo-1,3,8-triaza-spiro[4.5]dec-1-ene-8-sulfonyl]-ethyl}-3-methyl-phenyl)-imidazolidine-2,4-dione] | 25%
CC(=O)N(CCO)c1ccc(CCS(=O)(=O)N2CCC3(CC2)N=C(c2cccc(OC(F)(F)F)c2)NC3=O)c(C)c1 [Compound 149, N-(2-Hydroxy-ethyl)-N-(3-methyl-4-{2-[4-oxo-2-(3-trifluoromethoxy-phenyl)-1,3,8-triaza-spiro[4.5]dec-1-ene-8-sulfonyl]-ethyl}-phenyl)-acetamide] | 56%
CCCCCCCCCC1=NC2(CCN(S(=O)(=O)CCc3c(C)cc(C(=O)N4CCCCC4)cc3C)CC2)C(=O)N1 [Compound 983, 8-{2-[2,6-dimethyl-4-(piperidine-1-carbonyl)-phenyl]-ethanesulfonyl}-2-nonyl-1,3,8-triaza-spiro[4.5]dec-1-en-4-one] | 91%
CCCC=C1CCC(C2=NC3(CCN(S(=O)(=O)CCc4ccc(NC(C)=O)cc4C)CC3)C(=O)N2)CC1 (centres unmarked) [Compound 1079, N-(4-{2-[2-(4-Butylidene-cyclohexyl)-4-oxo-1,3,8-triaza-spiro[4.5]dec-1-ene-8-sulfonyl]-ethyl}-3-methyl-phenyl)-acetamide] | 91%
CC(=O)N(C)c1ccc(C)c(/C=C/S(=O)(=O)N2CCC3(CC2)N=C(c2cccc(OC(F)(F)F)c2)NC3=O)c1 [Compound 225, N-methyl-N-(4-methyl-3-{(E)-2-[4-oxo-2-(3-trifluoromethoxy-phenyl)-1,3,8-triaza-spiro[4.5]dec-1-ene-8-sulfonyl]-vinyl}-phenyl)-acetamide] | 47%

Source: patent US9169254B2, “Spiroimidazolone derivative” (Chugai Seiyaku Kabushiki Kaisha, priority 2009, dated 2015)
